The results in this text go back to patent publication US12715891B2, “Iron complexes and salts thereof as contrast agents for MRI” (BRACCO IMAGING S.P.A., priority 2020, dated 2026).

Series [1] in a line: Fixed-field relaxometric measurements in human serum and in water. The settings on record: for r1p / r2p: 1 T, 37° C. It counts as physicochemical. The protocol: Fixed-field relaxometric measurements were performed using the [Fe(DFX)2Meg3] complex obtained as per Example 1, comparing it with two prior art complexes, Gd-DTPA and Fe-DTPA.
The subject of series [2] is mice inoculated with tumour cells (ISA). Description: In vivo MRI contrast enhancement (En %). The settings on record: 0.1 mmol/Kg. How it is done: The increase in contrast (En %) generated by the administration of the complex according to the present invention Fe(DFX)2, obtained as per Example 1 (0.1 mmol/Kg), was measured and compared with the one induced by the Gd-DTPA complex (known by the trade name of Magnevist) at the same dose and under the same experimental conditions. The measurements were performed (in vivo), under a fixed magnetic field of 3T and 7T, in mice inoculated with tumour cells (ISA). The images were acquired when the size of the subcutaneous tumour had reached about 1-2 cm (i.e. about 15-20 days after inoculation).

Regarding `CNC[C@H](O)[C@@H](O)[C@H](O)[C@H](O)CO.CNC[C@H](O)[C@@H](O)[C@H](O)[C@H](O)CO.O=C([O-])CN(CCN(CC(=O)[O-])CC(=O)O)CCN(CC(=O)[O-])CC(=O)O.[Gd+3]` [Gd-DTPA, gadopentetic acid], the r1p was 4.1 (1 T, 37° C.) in series [1] (Human serum) and 3.4 (1 T, 37° C.) in series [1] (water). Besides, the r2p was 4.8 (1 T, 37° C.) in series [1] (Human serum) and 3.9 (1 T, 37° C.) in series [1] (water). The “relaxivity in human serum” value in series [1] (human serum, 37° C. and 1T) was 3.4 mM⁻¹ s⁻¹. For the same compound, in series [2], the “renal excretion (kidneys and bladder contrast) compared with Fe(DFX)2” value is recorded as “more rapid renal excretion”.
